The record followed here is patent publication US3947411A, “Novel 1-aryl-2-arylalkyl-3-or-4-[4'-(substituted-alkyl)piperazino-1']butanols- 2-or-butenes-1, and methods of manufacture thereof” (Warner-Lambert Company, priority 1972, dated 1976).

Converted amounts (≈) assume the structure as drawn.

Data set [1] deals with Staphylococcus aureus. Kind of data set: Agar well inhibition zone test against bacteria, Staphylococcus aureus (Table III). Conditions: quantity per well giving inhibition zone (500, 50, 5 μg tested); nutrient agar, 37°, 24 hours.
Procedure: (§1) The efficacy of the compounds against bacteria was tested as follows:
(§2) The test organisms, in this case Staphylococcus aureus and Escherichia coli, were inoculated on nutrient agar as described in Example 12, wells were punched, and the solutions of the compounds were transferred to fill the wells. The quantity of compound in the wells amounted again to 500 μg, 50 μg and 5 μg.
(§3) After incubation a 37° for 24 hours the quantity of compound was determined at which an inhibition of the organism's growth, in the form of an inhibition zone around the corresponding well, occurred.
Data set [2] concerns Aspergillus niger. Kind of data set: Agar well inhibition zone test against fungi, Aspergillus niger (Table II). The settings on record: quantity per well giving inhibition zone (500, 50, 5 μg tested); Sabouraud agar, 28°, 48 hours.
Procedure: The efficacy of the compounds against fungi was tested as follows:
The test organisms, in this case the blastomycete Candida albicans and the mold Aspergillus niger, were inoculated onto Sabouraud agar plates by pouring a photometrically adjusted standard suspension of organisms on the plate. After inoculation, wells with a diameter of 5.0 mm were punched in the agar, and filled with 50 ul of the compound solution mentioned before. The quantity of compound applied thus amounted to 500 μg, 50 μg and 5 μg. After incubation at 28° for 48 hours, the quantity of compound was determined at which an inhibition of the organism's growth, in form of an inhibition zone around the corresponding well, was present.
The subject of data set [3] is Candida albicans. Kind of data set: Agar well inhibition zone test against fungi, Candida albicans (Table II). Conditions: quantity per well giving inhibition zone (500, 50, 5 μg tested); Sabouraud agar, 28°, 48 hours.
The test system of data set [4] is C. albicans. Kind of data set: Minimum inhibitory concentration for fungi, tube dilution, C. albicans (Table IV). The settings on record: Candida albicans, 48 h, read-out: Minimum Inhibitory Concentration, C. albicans.
Procedure: (§4) A tube dilution series of the respective compound in Sabouraud nutrient broth, whose individual tubes contained concentrations of 1024 μg, 512 μg, 256 μg, 128 μg, 64 μg, 32 μg, 16 μg, 8 μg, 4 μg, 2 μg, 1.1 μg and 0.5 μg/ml, was prepared and inoculated with a photometrically standardized suspension of the test organisms or the spores thereof.
A short description of data set [5]: Solubility in water. Format: physicochemical. The settings on record: hydrochlorides or oxalates, read-out: solubilities (in water). The protocol: The following list contains examples of those compounds which are made according to the methods disclosed. (The individual compounds are identified by elementary analyses and infrared spectra, by ultra-violet or nuclear resonance spectra, if necessary.) Individual melting points and solubilities (in water) are also given as is the method by which each compound is prepared.
The melting points and solubilities are given for the Hydrochlorides I - XVI; XVIII - XXVII; XXIX - XXXV; XXXVII - XLII; XLIV - LXII; LXIV - LXVII, and the Oxalates XVII; […]; XXXVI; LXIII.

In data set [6] the test system is Escherichia coli. Kind of data set: Agar well inhibition zone test against bacteria, Escherichia coli (Table III). Conditions: quantity per well giving inhibition zone (500, 50, 5 μg tested); nutrient agar, 37°, 24 hours.
Procedure: as §1, §2, §3
Data set [7] deals with A. niger. Kind of data set: Minimum inhibitory concentration for fungi, tube dilution, A. niger (Table IV). Conditions: Aspergillus niger, 48 h, read-out: Minimum Inhibitory Concentration, A. niger.
Procedure: as §4
The subject of data set [8] is Staph. aureus. Kind of data set: Minimum inhibitory concentration for bacteria, tube dilution, Staph. aureus (Table V). The settings on record: Staphylococcus aureus, 48 h, read-out: Minimum Inhibitory Concentration, Staph. aureus.
Procedure: A tube dilution series of the respective compound in nutrient broth whose individual tubes contained concentrations of 1024 μg, 512 μg, 256 μg, 128 μg, 64 μg, 32 μg, 1 μg, 8 μg, 4 μg, 2 μg, 1.1 μg and 0.5 μg/ml was prepared and inoculated with a photometrically standardized suspension of the test organisms.

For `CCN(CC)CCN1CCN(C(C)C(O)(Cc2ccccc2)Cc2ccccc2)CC1` (stereo not drawn) [II, 1-phenyl-2-benzyl-3-[4'-(β-diethylaminoethyl)-piperazino-1']-butanol-2], in data set [1], the “Inhibition Area at μg, Staph. aureus” value is 500 µg. Besides, the “Inhibition Area at μg, Asp. niger” value in data set [2] came out at 50 µg. In data set [3], the “Inhibition Area at μg, Cand. albicans” value was 50 µg. The figures for the MIC in data set [4] and in data set [7] were 1020 µg/mL (≈ 2.42 mM) and 512 µg/mL (≈ 1.21 mM), respectively. The solubility in data set [5] is 50 mg/mL (≈ 118 mM). For the same molecule, in data set [6], the “Inhibition Area at μg, E. coli” value came to 500 µg.
For the molecule `CC(N1CCN(CCN(C)c2ccccc2)CC1)C(O)(Cc1ccccc1)Cc1ccccc1` (stereo not drawn) [XVIII, 1-phenyl-2-benzyl-3-[4'-(β-N-phenyl-N-methyl-aminoethyl)-piperazino-1']-butanol-2], in data set [1], the “Inhibition Area at μg, Staph. aureus” value was over 500 µg. The “Inhibition Area at μg, Asp. niger” value in data set [2] is over 500 µg. In data set [3], the “Inhibition Area at μg, Cand. albicans” value is over 500 µg. In addition, the solubility in data set [5] was found to be 10 mg/mL (≈ 21.9 mM). Besides, the “Inhibition Area at μg, E. coli” value in data set [6] is over 500 µg.
On to `OC(CCN1CCN(c2ccccc2)CC1)(Cc1ccccc1)Cc1ccccc1` [LVII, 1-phenyl-2-benzyl-4-(4'-phenyl-piperazino-1')-butanol-2], for which the “Inhibition Area at μg, Staph. aureus” value in data set [1] was over 500 µg. The “Inhibition Area at μg, Asp. niger” value in data set [2] is over 500 µg. For the same molecule, in data set [3], the “Inhibition Area at μg, Cand. albicans” value was over 500 µg. Moreover, the solubility in data set [5] is under 10 mg/mL. Moreover, the “Inhibition Area at μg, E. coli” value in data set [6] was determined as 500 µg.
For `CCN(CCN1CCN(C(C)C(O)(Cc2ccccc2)Cc2ccccc2)CC1)Cc1ccccc1` (stereo not drawn) [XVII, 1-phenyl-2-benzyl-3-[4'-(β-N-ethyl-N-benzyl-aminoethyl)-piperazino-1']-butanol-2], the “Inhibition Area at μg, Staph. aureus” value in data set [1] was over 500 µg. In data set [2], the “Inhibition Area at μg, Asp. niger” value was found to be 500 µg. Moreover, the “Inhibition Area at μg, Cand. albicans” value in data set [3] worked out at 500 µg. Besides, in data set [5], the solubility turned out to be 100 mg/mL (≈ 206 mM). Moreover, the “Inhibition Area at μg, E. coli” value in data set [6] was over 500 µg.
`CN1CCN(CCC(O)(Cc2ccccc2)Cc2ccccc2)CC1` [LVI, 1-phenyl-2-benzyl-4-(4'-methyl-piperazino-1')-butanol-2]: the “Inhibition Area at μg, Staph. aureus” value in data set [1] amounted to 500 µg. Moreover, in data set [2], the “Inhibition Area at μg, Asp. niger” value stood at 500 µg. For the same molecule, the “Inhibition Area at μg, Cand. albicans” value in data set [3] was determined as 500 µg. Also, the solubility in data set [5] was determined as 10 mg/mL (≈ 29.5 mM). For the same molecule, the “Inhibition Area at μg, E. coli” value in data set [6] is 500 µg.
With `CC(N1CCN(CCN2CCN(c3ccccc3)CC2)CC1)C(O)(Cc1ccccc1)Cc1ccccc1` (stereo not drawn) [XI, 1-phenyl-2-benzyl-3-{4'-[β-(4"-phenyl-piperazino-1")-ethyl]-piperazino-1'}-butanol-2], the “Inhibition Area at μg, Staph. aureus” value in data set [1] is 50 µg. Further, the “Inhibition Area at μg, Asp. niger” value in data set [2] was 500 µg. For the same molecule, the “Inhibition Area at μg, Cand. albicans” value in data set [3] is 50 µg. Moreover, the MIC in data set [8] and in data set [4] was over 1020 µg/mL each time. Besides, the solubility in data set [5] was 50 mg/mL (≈ 97.5 mM). Besides, the “Inhibition Area at μg, E. coli” value in data set [6] is over 500 µg.
In the case of `CN1CCN(CCCCCCN2CCN(CCC(O)(Cc3ccccc3)Cc3ccccc3)CC2)CC1` [LXI, 1-phenyl-2-benzyl-4-{4'-[w-(4"-methyl-piperazino-1")-n-hexyl]-piperazino-1'}-butanol-2], in data set [1], the “Inhibition Area at μg, Staph. aureus” value was over 500 µg. For the same molecule, in data set [2], the “Inhibition Area at μg, Asp. niger” value was over 500 µg. In addition, in data set [3], the “Inhibition Area at μg, Cand. albicans” value is over 500 µg. Moreover, the solubility in data set [5] stood at 100 mg/mL (≈ 197 mM). Besides, the “Inhibition Area at μg, E. coli” value in data set [6] is over 500 µg.
`CC(C(=Cc1ccccc1)Cc1ccccc1)N1CCN(CCCl)CC1` (stereo not drawn) [XLIV, 1-phenyl-2-benzyl-3-(4'-β-chloro-ethyl-piperazino-1')-butene-1]: the “Inhibition Area at μg, Staph. aureus” value in data set [1] stood at 500 µg. Besides, the “Inhibition Area at μg, Asp. niger” value in data set [2] was found to be 50 µg. Also, in data set [3], the “Inhibition Area at μg, Cand. albicans” value turned out to be 50 µg. In addition, the MIC in data set [4] and in data set [7] was over 1020 µg/mL each time. Also, the solubility in data set [5] was 10 mg/mL (≈ 27.1 mM). Moreover, the “Inhibition Area at μg, E. coli” value in data set [6] turned out to be 500 µg.
As to `CN1CCN(CC(O)(Cc2ccccc2)Cc2ccccc2)CC1` [LV, 1-phenyl-2-benzyl-3-(4'-methyl-piperazino-1')-propanol-2], in data set [1], the “Inhibition Area at μg, Staph. aureus” value is over 500 µg. Further, the “Inhibition Area at μg, Asp. niger” value in data set [2] is over 500 µg. In addition, the “Inhibition Area at μg, Cand. albicans” value in data set [3] is over 500 µg. In addition, the solubility in data set [5] is under 10 mg/mL. In addition, in data set [6], the “Inhibition Area at μg, E. coli” value was over 500 µg.
Turning to `CC(N1CCN(c2ccccc2)CC1)C(O)(Cc1ccccc1)Cc1ccccc1` (centres unmarked) [LII, 1-phenyl-2-benzyl-3-(4'-phenyl-piperazino-1')-butanol-2], the “Inhibition Area at μg, Staph. aureus” value in data set [1] was over 500 µg. Also, the “Inhibition Area at μg, Asp. niger” value in data set [2] is over 500 µg. The “Inhibition Area at μg, Cand. albicans” value in data set [3] is over 500 µg. In data set [5], the solubility is under 10 mg/mL. The “Inhibition Area at μg, E. coli” value in data set [6] was over 500 µg.
As to `CC(N1CCN(Cc2ccccc2)CC1)C(O)(Cc1ccccc1)Cc1ccccc1` (centres unmarked) [LIII, 1-phenyl-2-benzyl-3-(4'-benzyl-piperazino-1')-butanol-2], the “Inhibition Area at μg, Staph. aureus” value in data set [1] was over 500 µg. In addition, the “Inhibition Area at μg, Asp. niger” value in data set [2] was over 500 µg. For the same molecule, the “Inhibition Area at μg, Cand. albicans” value in data set [3] was over 500 µg. Further, the solubility in data set [5] was 10 mg/mL (≈ 24.1 mM). Moreover, the “Inhibition Area at μg, E. coli” value in data set [6] was over 500 µg.
`CC(N1CCN(CCO)CC1)C(O)(Cc1ccccc1)Cc1ccccc1` (stereo not drawn) [XLVI, 1-phenyl-2-benzyl-3-[4'-(β-hydroxyethyl)-piperazino-1']-butanol-2]: the “Inhibition Area at μg, Staph. aureus” value in data set [1] stood at 500 µg. The “Inhibition Area at μg, Asp. niger” value in data set [2] is 500 µg. The “Inhibition Area at μg, Cand. albicans” value in data set [3] is 500 µg. Also, in data set [5], the solubility was determined as 100 mg/mL (≈ 271 mM). Besides, in data set [6], the “Inhibition Area at μg, E. coli” value was over 500 µg.
As to `CC(N1CCN(CCN(Cc2ccccc2)Cc2ccccc2)CC1)C(O)(Cc1ccccc1)Cc1ccccc1` (stereo not drawn) [XVI, 1-phenyl-2-benzyl-3-[4'-(β-dibenzylamino-ethyl)-piperazino-1']-butanol-2], the “Inhibition Area at μg, Staph. aureus” value in data set [1] is over 500 µg. Besides, the “Inhibition Area at μg, Asp. niger” value in data set [2] is over 500 µg. The “Inhibition Area at μg, Cand. albicans” value in data set [3] is over 500 µg. For the same molecule, the solubility in data set [5] was 50 mg/mL (≈ 91.3 mM). Further, the “Inhibition Area at μg, E. coli” value in data set [6] was over 500 µg.
With `Cc1cccc(CN2CCN(C(C)C(O)(Cc3ccccc3)Cc3ccccc3)CC2)c1` (centres unmarked) [LIV, 1-phenyl-2-benzyl-3-(4'-m-methyl-benzyl-piperazino-1')-butanol-2], the “Inhibition Area at μg, Staph. aureus” value in data set [1] is over 500 µg. For the same molecule, the “Inhibition Area at μg, Asp. niger” value in data set [2] was over 500 µg. In addition, the “Inhibition Area at μg, Cand. albicans” value in data set [3] was over 500 µg. The solubility in data set [5] came out at 10 mg/mL (≈ 23.3 mM). Besides, the “Inhibition Area at μg, E. coli” value in data set [6] is over 500 µg.
Take `CC(N1CCN(C)CC1)C(O)(Cc1ccccc1)Cc1ccccc1` (centres unmarked) [LI, 1-phenyl-2-benzyl-3-[1'-methyl-piperazino-4'-]-butanol-2]: the “Inhibition Area at μg, Staph. aureus” value in data set [1] worked out at 500 µg. In addition, the “Inhibition Area at μg, Asp. niger” value in data set [2] was 50 µg. Also, the “Inhibition Area at μg, Cand. albicans” value in data set [3] was 50 µg. Further, the MIC in data set [4] and in data set [7] was 256 µg/mL (≈ 0.756 mM) each time. The solubility in data set [5] was 200 mg/mL (≈ 591 mM). The “Inhibition Area at μg, E. coli” value in data set [6] came out at 500 µg.
